Assays:
Assay type in all cases: in vitro ADME
[1] = Intrinsic clearance in rat liver microsomes; conditions: 37° C., 1 μM compound, 1 mg/mL microsomal protein
Method: (§1) Intrinsic clearance (CLint). CLint was determined in rat and human liver microsomes. Incubations were performed at 37° C., at a concentration of 1 μM of compound, and a microsomal protein concentration of 1 mg/mL. Serial samples were removed at intervals of up to 60 min and analyzed for the concentration of compound to determine its intrinsic clearance rate. Compound was incubated in rat and human hepatocytes (10^6 cells/mL) at 1 μM for 0, 10, 20, 40, 60 and 120 min. Serial samples were removed at intervals of up to 120 min and analyzed for the concentration of compound to determine its intrinsic clearance rate. Permeability and Efflux in vitro. The in vitro permeability and potential to be transported by P-glycoprotein (P-gp) was determined using an MDCK cell line transfected with human MDR1 (P-glycoprotein). […] Permeability in the A→B direction in absence and presence of GF120918 and in the B→A direction in absence of GF120918 was measured by monitoring the appearance of the test compound on the opposite side of the membrane using a specific LC-MS/MS method. The efflux ratio (B→*A-GF120918/A→B-GF120918) was calculated to determine whether the test compound was a P-gp substrate. […] Plasma stability is measured in rat and human plasma for 7 or 24 h at 37° C. […] Samples were analyzed by LC-MS/MS (without internal standard). […] Half-life (t1/2 in hours) is calculated from those data. […]

[2] = tested on: P-glycoprotein (human MDR1); test: Permeability and efflux in vitro in MDCK-MDR1 cell line; conditions: dog, MDCK-MDR1 cells, in absence of GF120918
Method: as §1

[3] = Intrinsic clearance in human liver microsomes; conditions: 37° C., 1 μM compound, 1 mg/mL microsomal protein
Method: as §1

Row | microsomal CLint at 1 μM [1] | Papp A→B [2] | efflux ratio ([2]; read-out: Efflux ratio B -> A/A -> B) | microsomal CLint at 1 μM [3] | SMILES
1 | 84 µL/min/mg | – | – | – | CCCC[C@H](COC(=O)C(C)C)Nc1nc(NC(=O)C(C)C)nc2c(C)cccc12 [Compound 2, (R)-2-((2-isobutyramido-8-methylquinazolin-4-yl)amino)hexyl isobutyrate]
2 | 109 µL/min/mg | 8.22 ×10⁻⁶ cm/s | 4.5 | 47 µL/min/mg | CCCC[C@H](CO)Nc1nc(NC(=O)OCC)nc2c(C)cccc12 [Compound 1, ethyl (R)-(4-((1-hydroxyhexan-2-yl)amino)-8-methylquinazolin-2-yl)carbamate]
